Read-outs that look alike come from different tables or passages of the source.
Columns and labels:
[1] = Stability of azadirachtin A in a formulation, accelerated storage test and real time conditions; type: physicochemical
Procedure: The behavior of azadirachtin in real time and in accelerated conditions (especially at 54° C.) is quite different.

[2] = 25 days at 29+/−1° C., cited from earlier work

C/C=C(\C)C(=O)O[C@H]1C[C@@H](OC(C)=O)[C@@]2(C(=O)OC)CO[C@H]3[C@@H](O)[C@@](C)([C@]45O[C@@]4(C)[C@@H]4C[C@H]5O[C@@H]5OC=C[C@@]54O)[C@H]4[C@]1(CO[C@]4(O)C(=O)OC)[C@@H]32 [azadirachtin A]
degradation of azadirachtin A ([1]; accelerated storage test at 54° C., after 14 days): 66% | degradation of azadirachtin A per month ([1]; real time conditions at 20° C.): approximately 0.9 % per month | total degradation of azadirachtin A per year ([1]; real time conditions at 20° C.): 11 % per year | degradation of azadirachtin A ([2]; in ethanol and water): about 80% | degradation of azadirachtin A ([2]; in methanol and acetone): 50% | degradation of azadirachtin A ([2]; in methylene chloride, carbon tetrachloride and chloroform): 75-80%

Reference: US6811790B1, “Storage stable pesticide formulations containing azadirachtin” (E.I.D. Parry (India) Ltd., priority 2000, dated 2004)
